Data taken from ChEMBL document CHEMBL1201862, “PubChem BioAssay data set” (2004).
Calls of active or inactive are those of the source.

How the values were obtained:
[1] = luciferase reporter signal suppression in cells – H4 neuroglioma cells, luminescence, dose response (AID 1990); assay type: functional, cell-based
[2] = alpha-synuclein stem-loop luciferase translation blockers – H4 neuroglioma cells, luminescence, confirmation (AID 1988); assay type: functional, cell-based
[3] = Luminescence Cell-Based Dose Response HTS to Identify Inhibitors of 5'UTR Stem-Loop Driven Prion Protein mRNA Translation in H4 Neuroglioblastoma Cells. [Related pubchem assays: 1827 (Project Summary), 1813 (Primary HTS)]; assay type: functional
[4] = system: Streptococcus sp. 'group A'; experiment: Streptococcus pyogenes SK(-)GAS viability under kanamycin – luminescence, BacTiterGlo, confirmation, counter-screen for streptokinase expression inhibitor project, dose response (AID 1900); assay type: functional, organism-based
Streptokinase A = target: T1, Streptokinase A (Streptococcus pyogenes serotype M1, UniProt P10520); experiment: viability-normalized secreted streptokinase activity reduction – plasminogen activation absorbance, OD405, dose response (AID 1914); assay type: functional, Streptococcus pyogenes M1 GAS;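 note: secreted streptokinase activity via plasminogen activation per viability signal from cell pellet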
T1 sequence (P10520 whole entry): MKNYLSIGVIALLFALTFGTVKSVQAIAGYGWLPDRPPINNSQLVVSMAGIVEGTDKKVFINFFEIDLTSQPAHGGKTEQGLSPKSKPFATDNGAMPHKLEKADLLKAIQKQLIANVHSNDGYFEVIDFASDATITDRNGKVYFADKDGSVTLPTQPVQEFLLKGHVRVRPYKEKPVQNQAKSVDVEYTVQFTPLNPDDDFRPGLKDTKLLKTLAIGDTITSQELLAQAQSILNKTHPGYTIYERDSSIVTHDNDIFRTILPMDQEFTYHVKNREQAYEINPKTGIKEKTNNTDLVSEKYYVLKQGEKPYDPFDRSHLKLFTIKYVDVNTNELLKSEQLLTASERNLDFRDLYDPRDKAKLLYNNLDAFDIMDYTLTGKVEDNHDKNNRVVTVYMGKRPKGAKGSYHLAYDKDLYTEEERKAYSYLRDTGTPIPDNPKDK

H9c2 = experiment: cells; assay type: functional, cell-based; conditions: Rattus norvegicus, H9c2, Myocardium;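 note: confirmatory concentration-response retest of ultra-high-throughput screening hits for modulation of myocardial damage; cell death induced by hydrogen peroxide oxidative stress; compound pretreatment for 60 min then peroxide exposure for 2 h; potency is for protecting the cells against peroxide damage rather than for killing them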
Streptococcus = experiment: GAS UMAA2166 growth inhibition – luminescence, BacTiterGlo, counter-screen for streptokinase expression inhibitor project, dose response (AID 1915); assay type: functional, organism-based;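 note: potency for reduction of bacterial viability or growth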
[5] = target: T2, Sentrin-specific protease 6 (Homo sapiens, UniProt Q9GZR1); assay type: functional;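 note: Luminescence-based dose-response confirmatory assay of SENP6 inhibition, following up an ultra-high-throughput screen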
T2 sequence (Q9GZR1 whole entry): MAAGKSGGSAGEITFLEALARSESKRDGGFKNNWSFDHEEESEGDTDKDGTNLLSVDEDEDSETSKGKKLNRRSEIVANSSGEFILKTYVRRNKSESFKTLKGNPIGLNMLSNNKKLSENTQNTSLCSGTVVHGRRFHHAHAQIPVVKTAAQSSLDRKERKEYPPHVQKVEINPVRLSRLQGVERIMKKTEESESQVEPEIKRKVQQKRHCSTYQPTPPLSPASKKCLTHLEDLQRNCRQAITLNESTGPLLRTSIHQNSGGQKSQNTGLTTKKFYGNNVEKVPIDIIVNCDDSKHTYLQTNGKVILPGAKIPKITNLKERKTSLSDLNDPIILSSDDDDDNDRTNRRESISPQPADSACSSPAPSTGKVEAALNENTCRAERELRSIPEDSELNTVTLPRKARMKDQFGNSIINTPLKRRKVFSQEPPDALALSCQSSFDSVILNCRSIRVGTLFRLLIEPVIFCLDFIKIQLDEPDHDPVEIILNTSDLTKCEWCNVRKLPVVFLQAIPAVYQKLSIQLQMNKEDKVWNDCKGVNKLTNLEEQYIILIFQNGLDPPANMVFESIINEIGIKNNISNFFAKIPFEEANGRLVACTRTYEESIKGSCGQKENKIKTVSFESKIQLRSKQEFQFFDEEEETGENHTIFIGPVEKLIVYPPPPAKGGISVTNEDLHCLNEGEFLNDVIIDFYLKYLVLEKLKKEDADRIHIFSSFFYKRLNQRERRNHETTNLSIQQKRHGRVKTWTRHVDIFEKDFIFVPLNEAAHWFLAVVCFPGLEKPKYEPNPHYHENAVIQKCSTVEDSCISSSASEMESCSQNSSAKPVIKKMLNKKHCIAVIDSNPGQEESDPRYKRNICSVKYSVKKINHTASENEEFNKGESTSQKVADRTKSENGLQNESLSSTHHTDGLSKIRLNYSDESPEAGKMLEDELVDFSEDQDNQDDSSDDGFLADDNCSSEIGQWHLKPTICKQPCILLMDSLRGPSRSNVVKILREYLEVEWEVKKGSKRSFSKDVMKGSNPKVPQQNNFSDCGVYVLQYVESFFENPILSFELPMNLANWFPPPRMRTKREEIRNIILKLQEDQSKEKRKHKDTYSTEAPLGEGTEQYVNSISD

[6] = target: T3, Sentrin-specific protease 8 (Homo sapiens, UniProt Q96LD8); assay type: functional;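 note: luminescence read-out of SENP8 inhibition, dose-response confirmation following an ultra-high-throughput screen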
T3 sequence (Q96LD8 whole entry): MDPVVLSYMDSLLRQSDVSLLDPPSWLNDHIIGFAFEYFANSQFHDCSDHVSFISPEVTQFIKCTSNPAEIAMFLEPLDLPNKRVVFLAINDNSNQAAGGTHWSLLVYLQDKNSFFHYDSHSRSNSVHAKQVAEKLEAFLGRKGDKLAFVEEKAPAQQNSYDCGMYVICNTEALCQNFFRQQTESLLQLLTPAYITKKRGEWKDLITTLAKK

[7] = target: T4, Sentrin-specific protease 7 (Homo sapiens, UniProt Q9BQF6); assay type: functional;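 note: Luminescence-based dose-response confirmation of ultra-high-throughput screening hits, measuring inhibition of SENP7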
T4 sequence (Q9BQF6 whole entry): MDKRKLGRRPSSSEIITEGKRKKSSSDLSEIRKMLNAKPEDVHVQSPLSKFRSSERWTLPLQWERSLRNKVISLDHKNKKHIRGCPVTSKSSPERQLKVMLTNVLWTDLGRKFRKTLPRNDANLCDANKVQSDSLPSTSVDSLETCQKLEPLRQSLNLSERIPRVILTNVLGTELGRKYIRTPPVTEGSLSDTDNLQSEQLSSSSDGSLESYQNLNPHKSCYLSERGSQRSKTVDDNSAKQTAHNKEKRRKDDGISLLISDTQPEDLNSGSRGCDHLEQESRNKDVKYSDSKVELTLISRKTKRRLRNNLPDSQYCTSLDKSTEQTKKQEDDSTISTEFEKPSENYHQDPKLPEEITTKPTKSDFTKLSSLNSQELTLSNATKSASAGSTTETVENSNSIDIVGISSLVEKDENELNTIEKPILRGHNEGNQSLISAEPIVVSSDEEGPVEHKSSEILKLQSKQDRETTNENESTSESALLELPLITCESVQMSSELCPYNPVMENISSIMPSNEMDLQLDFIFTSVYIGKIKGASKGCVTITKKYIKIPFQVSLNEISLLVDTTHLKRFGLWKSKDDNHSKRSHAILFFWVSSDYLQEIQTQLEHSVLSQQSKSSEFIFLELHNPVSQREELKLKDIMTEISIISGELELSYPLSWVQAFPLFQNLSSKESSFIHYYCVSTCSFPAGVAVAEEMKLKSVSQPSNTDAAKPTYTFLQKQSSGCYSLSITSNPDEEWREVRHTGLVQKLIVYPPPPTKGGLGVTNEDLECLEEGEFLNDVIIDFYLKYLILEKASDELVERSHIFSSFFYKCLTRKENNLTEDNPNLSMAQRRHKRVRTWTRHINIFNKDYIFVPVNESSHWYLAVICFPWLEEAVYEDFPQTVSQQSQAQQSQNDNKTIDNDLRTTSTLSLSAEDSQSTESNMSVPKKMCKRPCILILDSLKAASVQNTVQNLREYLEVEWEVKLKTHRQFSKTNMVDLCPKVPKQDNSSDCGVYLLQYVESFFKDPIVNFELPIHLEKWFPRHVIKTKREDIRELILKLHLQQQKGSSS

[8] = target: T5, Microphthalmia-associated transcription factor (Homo sapiens, UniProt O75030); experiment: reducers of TRPM1 reporter luminescence, concentration series – cell-based, SK-MEL-5, cherry-picked, set 3, MITF inhibitor project, dose response (AID 493073); assay type: functional;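 note: SK-MEL-5 melanoma cells with luciferase driven by the MITF target TRPM1 promoter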
T5 sequence (O75030 whole entry): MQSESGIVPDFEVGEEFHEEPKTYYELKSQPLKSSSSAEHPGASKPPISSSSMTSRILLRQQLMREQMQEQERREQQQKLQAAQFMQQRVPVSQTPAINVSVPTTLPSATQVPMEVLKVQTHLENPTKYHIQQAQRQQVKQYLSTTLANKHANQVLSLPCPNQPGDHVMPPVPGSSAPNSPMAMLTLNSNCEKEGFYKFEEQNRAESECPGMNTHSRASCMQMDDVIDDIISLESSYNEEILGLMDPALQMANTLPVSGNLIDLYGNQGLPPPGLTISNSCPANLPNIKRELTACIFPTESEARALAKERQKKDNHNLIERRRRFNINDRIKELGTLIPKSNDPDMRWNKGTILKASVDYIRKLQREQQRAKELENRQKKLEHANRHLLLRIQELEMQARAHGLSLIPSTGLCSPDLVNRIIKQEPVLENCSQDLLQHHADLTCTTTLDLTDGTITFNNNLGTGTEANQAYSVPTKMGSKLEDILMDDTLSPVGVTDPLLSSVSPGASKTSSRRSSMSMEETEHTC

[9] = target: Glyceraldehyde-3-phosphate dehydrogenase (Homo sapiens, UniProt P04406)
Glyceraldehyde-3-phosphate dehydrogenase, sequence (P04406 whole entry): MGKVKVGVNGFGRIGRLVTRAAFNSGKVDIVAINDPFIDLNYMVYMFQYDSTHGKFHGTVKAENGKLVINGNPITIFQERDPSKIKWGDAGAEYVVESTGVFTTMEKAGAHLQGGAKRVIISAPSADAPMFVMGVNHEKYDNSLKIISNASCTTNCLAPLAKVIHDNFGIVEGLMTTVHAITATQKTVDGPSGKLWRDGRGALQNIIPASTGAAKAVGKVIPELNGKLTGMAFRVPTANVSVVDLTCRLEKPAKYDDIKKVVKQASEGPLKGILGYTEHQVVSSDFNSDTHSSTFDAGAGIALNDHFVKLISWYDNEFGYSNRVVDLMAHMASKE

Structure (SMILES) | EC50 [1] | EC50 [2] | EC50 [3] | IC50 (H9c2) | also measured
CC(NC(=O)COC(=O)c1ccc2c(c1)S(=O)(=O)N=C1CCCCCN12)C12CC3CC(CC(C3)C1)C2 (configuration not stated) | > 120 µM (not active) | 15.5 µM (active) | > 120 µM (not active) | – | –
Cc1cc(C)c(C(=O)CC(=O)c2ccccc2Cl)c(O)c1 | – | – | – | 11.7 µM (active) | EC50 [4]: 7.46 µM (active); EC50 (Streptokinase A): > 150 µM (not active); EC50 (Streptococcus): 23.5 µM (active)
O=C(CCc1nnc(-c2ccc(-c3ccccc3)cc2)o1)NCCc1ccccn1 | – | – | 21.4 µM (active) | – | –
Cn1c(/C(C#N)=C/c2ccc(O)cc2)nc2ccccc21 | – | – | – | – | IC50 [5]: 28.3 µM (active); IC50 [6]: 45 µM (active); IC50 [7]: 12 µM (active)
Cc1onc(-c2ccccc2Cl)c1C(=O)NC(=S)Nc1ccc(C(C)(C)C)cc1 | > 120 µM (not active) | 107 µM (active) | > 120 µM (not active) | – | –
Cc1c(CCC(=O)N2CCC[C@H]2C(=O)O)c(=O)oc2c(C)c3oc4c(c3cc12)CCCC4 | 15.9 µM (active) | 14 µM (active) | 16.2 µM (active) | – | –
COc1cccc(-n2nc3c(S)nnc(C)c3c2C)c1 | 16.2 µM (active) | > 120 µM (not active) | > 120 µM (not active) | – | –
COc1ccccc1N1C(=O)N(C(C)=O)C2C1Nc1ccccc1N2C (configuration not stated) | – | – | – | – | AC50 [8]: 10.5 µM (active)
O=C(Nc1ccc(CN2CCOCC2)cc1)c1ccc(-c2cccc([N+](=O)[O-])c2)o1 | – | – | – | > 79 µM (inactive) | –
Cc1sc2nc(COC(=O)Cc3ccccc3)nc(O)c2c1C | – | – | – | 23.4 µM (active) | –
COc1cc2c(cc1OC)C(SC)=NC1(CCCC1)C2 | – | – | – | – | AC50 [8]: 9.44 µM (active)
COc1ccc(Cl)cc1S(=O)(=O)Nc1cnc2ccccc2c1 | – | – | – | – | IC50 [9]: > 10 µM (inconclusive)
Cc1ccc(CNc2cc(-c3nn4c(C)nnc4s3)ccc2C)s1 | 9.69 µM (active) | 22.5 µM (active) | 56.1 µM (active) | – | –
COc1ccccc1NS(=O)(=O)c1cc(NC(=O)CCc2nc(O)c3ccccc3n2)ccc1C | – | – | – | > 79 µM (inactive) | –
COc1ccccc1CN(C(=O)CNC(=O)c1ccco1)C(C(=O)NCC1CCCO1)c1ccccc1 (configuration not stated) | – | – | – | > 79 µM (inactive) | –
Nc1ccc(-c2cc3ccccc3c(=O)o2)cc1 | – | – | – | – | AC50 [8]: 0.293 µM (active)
CCOC(=O)C1=C(NC(=O)c2oc3ccccc3c2COC)Nc2ccccc2N=C1C | – | – | – | > 79 µM (inactive) | –
O=C(N/N=C/c1ccccn1)c1cc(-c2ccc(Cl)s2)n[nH]1 | – | – | – | > 79 µM (inactive) | –
COc1cc(C(=O)N/N=C/c2ccc(OC(=O)c3ccccc3Cl)cc2)ccc1O | – | – | – | > 79 µM (inactive) | –
COc1cccc(/C=N/NC(=O)N/N=C/c2cccc(OC)c2O)c1O | 15.5 µM (active) | 9.36 µM (active) | > 120 µM (not active) | – | –
